Where a name gives a salt, the structure may show the parent alone.
What was measured:
MASP-2 (CCP1-CCP2-SP) = molecular target: T1, MASP-2 (CCP1-CCP2-SP) (Homo sapiens, UniProt O00187); assay: Enzymatic assay for MASP-2 inhibitory activity (fluorogenic substrate); assay type: biochemical
T1 construct: 15 μL of Enzyme MASP-2 (CCP1-CCP2-SP) in Assay Buffer
Summary of the method: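 Fluorescence was normalized between no-enzyme and DMSO-only controls to derive % activity, with IC50 taken as equivalent to Ki except for tight-binding inhibitors. Reactions ran 20 min at room temperature in HEPES pH 7.4/NaCl/Tween 20 buffer, using the C2-derived fluorogenic substrate, before acetic acid stop.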

human α-thrombin = molecular target: T2, human α-thrombin (Homo sapiens, UniProt P00734); assay: Enzymatic assay for thrombin (fluorogenic peptide substrate Boc-VPR-AMC); assay type: biochemical
T2 construct: enzyme (human α-thrombin (BioPharm® Lab.)) in assay buffer; purchased BioPharm® Lab
Summary of the method: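 Assay conditions kept the reaction linear in time, enzyme and substrate, so IC50 approximated Ki apart from tight- or slow-binding cases. Boc-VPR-AMC cleavage by human α-thrombin proceeded 20 min at room temperature in Hepes pH 7.4/NaCl/Tween 20 buffer, then was acid-quenched and read by fluorescence.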

T1 sequence (O00187 445-686 limits assumed): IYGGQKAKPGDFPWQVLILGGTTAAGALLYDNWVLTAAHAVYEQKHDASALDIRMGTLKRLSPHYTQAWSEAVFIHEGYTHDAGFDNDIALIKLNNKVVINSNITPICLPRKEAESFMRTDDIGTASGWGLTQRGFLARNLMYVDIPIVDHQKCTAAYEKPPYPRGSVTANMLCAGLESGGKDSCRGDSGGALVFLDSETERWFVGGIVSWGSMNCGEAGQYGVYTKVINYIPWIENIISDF
T1 sequence (O00187 287-444 partner limits assumed): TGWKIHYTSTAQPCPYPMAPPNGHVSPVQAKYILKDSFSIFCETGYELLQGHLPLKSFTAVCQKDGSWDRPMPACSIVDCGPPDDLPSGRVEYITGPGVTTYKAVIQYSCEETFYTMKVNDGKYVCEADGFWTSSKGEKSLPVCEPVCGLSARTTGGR

SMILES	Ki (MASP-2 (CCP1-CCP2-SP)) [nM]	Ki (human α-thrombin) [nM]
Cc1cc(F)cc(CNc2nc(-c3cnn(C(F)F)c3)c3n(c2=O)[C@H](C(=O)NCc2cc4cnccc4[nH]2)CC3)c1 [Compound 215, (S)-N-((1H-pyrrolo[3,2-c]pyridin-2-yl)methyl)-1-(1-(difluoromethyl)-1H-pyrazol-4-yl)-3-((3-fluoro-5-methylbenzyl)amino)-4-oxo-4,6,7,8-tetrahydropyrrolo[1,2-a]pyrazine-6-carboxamide trifluoroacetate]	< 500	> 25000
Cc1cc(F)cc(CNc2nc(-c3cnn(C(F)F)c3)c3n(c2=O)[C@H](C(=O)NCc2ccc(N)nc2)CC3)c1 [Compound 216, (S)-N-((6-aminopyridin-3-yl)methyl)-1-(1-(difluoromethyl)-1H-pyrazol-4-yl)-3-((3-fluoro-5-methylbenzyl)amino)-4-oxo-4,6,7,8-tetrahydropyrrolo[1,2-a]pyrazine-6-carboxamide trifluoroacetate]	< 500	> 25000
Cc1cc(F)cc(CNc2nc(-c3ccccc3)c3n(c2=O)[C@H](C(=O)NCc2ccc(N)nc2C)CC3)c1 [Compound 217, (S)-N-((6-amino-2-methylpyridin-3-yl)methyl)-3-((3-fluoro-5-methylbenzyl)amino)-4-oxo-1-phenyl-4,6,7,8-tetrahydropyrrolo[1,2-a]pyrazine-6-carboxamide trifluoroacetate]	< 500	> 25000
[2H]C([2H])([2H])c1nc(NCc2cc(C)cc(F)c2)c(=O)n2c1CC[C@H]2C(=O)NCc1ccc(N)nc1C [Compound 218, (S)-N-((6-amino-2-methylpyridin-3-yl)methyl)-3-((3-fluoro-5-methylbenzyl)amino)-1-(methyl-d3)-4-oxo-4,6,7,8-tetrahydropyrrolo[1,2-a]pyrazine-6-carboxamide trifluoroacetate]	< 500	< 500
Cc1cc(F)cc(CNc2nc(-c3cnn(C(F)F)c3)c3n(c2=O)[C@H](C(=O)NCc2cc4c(s2)CNC4)CC3)c1 [Compound 219, (S)-1-(1-(difluoromethyl)-1H-pyrazol-4-yl)-N-((5,6-dihydro-4H-thieno[2,3-c]pyrrol-2-yl)methyl)-3-((3-fluoro-5-methylbenzyl)amino)-4-oxo-4,6,7,8-tetrahydropyrrolo[1,2-a]pyrazine-6-carboxamide trifluoroacetate]	< 500	> 25000
Cc1nc(N)ccc1CNC(=O)[C@@H]1CCc2cnc(NCc3cccc(-c4ccccc4)c3)c(=O)n21 [Compound 220, (S)-3-(([1,1′-biphenyl]-3-ylmethyl)amino)-N-((6-amino-2-methylpyridin-3-yl)methyl)-4-oxo-4,6,7,8-tetrahydropyrrolo[1,2-a]pyrazine-6-carboxamide trifluoroacetate]	< 500	< 500
Cc1cc(F)cc(CNc2nc(C#N)c3n(c2=O)[C@H](C(=O)NCc2ccc(N)nc2C)CC3)c1 [Compound 222, (S)—N-((6-amino-2-methylpyridin-3-yl)methyl)-1-cyano-3-((3-fluoro-5-methylbenzyl)amino)-4-oxo-4,6,7,8-tetrahydropyrrolo[1,2-a]pyrazine-6-carboxamide trifluoroacetate]	< 500	2500 to 10000
Cc1ccc(F)c(CNc2nc(C#N)c3n(c2=O)[C@H](C(=O)NCc2ccc(N)nc2C)CC3)c1 [Compound 223, trifluoroacetate]	< 500	2500 to 10000
Cc1cc(F)c(F)c(CNc2ncc3n(c2=O)[C@H](C(=O)N[C@H](C)c2ccc(N)nc2)CC3)c1 [Compound 224, (S)—N—((R)-1-(6-aminopyridin-3-yl)ethyl)-3-((2,3-difluoro-5-methylbenzyl)amino)-4-oxo-4,6,7,8-tetrahydropyrrolo[1,2-a]pyrazine-6-carboxamide trifluoroacetate]	< 500	2500 to 10000
NCc1ccc(CNC(=O)[C@@H]2CCc3c(Cl)nc(NCc4ccc5c(c4)CCCC5)c(=O)n32)s1 [Compound 225, (S)—N-((5-(aminomethyl)thiophen-2-yl)methyl)-1-chloro-4-oxo-3-(((5,6,7,8-tetrahydronaphthalen-2-yl)methyl)amino)-4,6,7,8-tetrahydropyrrolo[1,2-a]pyrazine-6-carboxamide trifluoroacetate]	< 500	> 25000
C[C@@H]1C[C@@H](C(=O)NCc2cc3cnccc3[nH]2)n2c1cnc(NCc1ccccc1)c2=O [Compound 227, trifluoroacetate]	< 500	2500 to 10000
CC1(C)C[C@@H](C(=O)NCc2cc3cnccc3[nH]2)n2c1c(Cl)nc(NCc1ccccc1)c2=O [Compound 229, (S)-N-((1H-pyrrolo[3,2-c]pyridin-2-yl)methyl)-3-(benzylamino)-1-chloro-8,8-dimethyl-4-oxo-4,6,7,8-tetrahydropyrrolo[1,2-a]pyrazine-6-carboxamide trifluoroacetate]	< 500	2500 to 10000
O=C(NCc1cc2cnccc2[nH]1)[C@@H]1CC2(CCCC2)c2c(Cl)nc(NCc3ccccc3)c(=O)n21 [Compound 231, (S)—N-((1H-pyrrolo[3,2-c]pyridin-2-yl)methyl)-3′-(benzylamino)-1′-chloro-4′-oxo-6′,7′-dihydro-4′H-spiro[cyclopentane-1,8′-pyrrolo[1,2-a]pyrazine]-6′-carboxamide trifluoroacetate]	< 500	10000 to 25000
Nc1nc(Cl)c2n(c1=O)[C@H](C(=O)NCc1cc3cnccc3[nH]1)CC21CCCC1 [Compound 232, (S)—N-((1H-pyrrolo[3,2-c]pyridin-2-yl)methyl)-3′-amino-1′-chloro-4′-oxo-6′,7′-dihydro-4′H-spiro[cyclopentane-1,8′-pyrrolo[1,2-a]pyrazine]-6′-carboxamide trifluoroacetate]	500 to 2500	> 25000
O=C(NCc1cc2cnccc2[nH]1)[C@@H]1CC2(CC=CC2)c2c(Cl)nc(NCc3ccccc3)c(=O)n21 [Compound 233, (S)—N-((1H-pyrrolo[3,2-c]pyridin-2-yl)methyl)-3′-(benzylamino)-1′-chloro-4′-oxo-6′,7′-dihydro-4′H-spiro[cyclopentane-1,8′-pyrrolo[1,2-a]pyrazin]-3-ene-6′-carboxamide trifluoroacetate]	< 500	> 25000
CC[C@@H](Nc1ncc2n(c1=O)[C@H](C(=O)NCc1cc3c(s1)CNC3)CC2)c1ccccc1 [Compound 234]	< 500	< 500
O=C(NCc1cc2c(s1)CNC2)[C@@H]1CCc2cnc(NC3CCc4ccccc43)c(=O)n21 (stereo partly drawn) [Compound 235]	< 500	< 500

SMILES	Ki (MASP-2 (CCP1-CCP2-SP)) [nM]	Ki (human α-thrombin) [nM]
Nc1ccc2c(n1)CC[C@H]2NC(=O)[C@@H]1CCc2cnc(NCc3cccc(-c4ccccc4)c3)c(=O)n21 [Compound 236]	< 500	500 to 2500
Cc1ccc(C)c(CNc2ncc3n(c2=O)[C@H](C(=O)N[C@H](C)c2ccc(N)nc2C)CC3)c1 [Compound 237]	< 500	500 to 2500
Cc1cc(C)cc(CNc2ncc3n(c2=O)[C@H](C(=O)N[C@H](C)c2ccc(N)nc2C)CC3)c1 [Compound 238]	< 500	500 to 2500
O=C(NCc1cc2cnccc2[nH]1)[C@@H]1CCc2c(Cl)nc(NCCc3cccnc3)c(=O)n21 [Compound 241]	< 500	< 500
O=C(NCc1cc2c(s1)CNC2)[C@@H]1CCc2c(Cl)nc(NCCc3ccccc3)c(=O)n21 [Compound 242]	< 500	< 500
N=C(N)c1ccc(CNC(=O)[C@@H]2CCc3c(Cl)nc(NCc4ccccc4)c(=O)n32)cc1 [Compound 243]	< 500	< 500
COC(CNc1nc(Cl)c2n(c1=O)[C@H](C(=O)NCc1cc3cnccc3[nH]1)CC2)c1ccccc1 (stereo partly drawn) [Compound 244]	< 500	500 to 2500
O=C(NCc1cc2cnccc2[nH]1)[C@@H]1CCc2c(Cl)nc(NCC3(c4ccccc4)CC3)c(=O)n21 [Compound 245]	< 500	500 to 2500
O=C(NCc1cc2cnccc2[nH]1)[C@@H]1CCc2c(-c3cn[nH]c3)nc(NCCc3ccccc3)c(=O)n21 [Compound 246]	< 500	> 25000
O=C(NCc1cc2cnccc2[nH]1)[C@@H]1CCc2c(C3CC3)nc(NCCc3ccccc3)c(=O)n21 [Compound 247]	< 500	500 to 2500
O=C(NCc1cc2cnccc2[nH]1)[C@@H]1CCc2cnc(NCCc3ccccc3)c(=O)n21 [Compound 248]	< 500	< 500
O=C(NCc1cc2cnccc2[nH]1)[C@@H]1CCc2c(Cl)nc(NCCc3ccccc3)c(=O)n21 [Compound 249]	< 500	500 to 2500
N=C(N)c1ccc(CNC(=O)[C@@H]2CCc3c(Cl)nc(NCCc4ccccc4)c(=O)n32)cc1 [Compound 250]	500 to 2500	2500 to 10000
O=C(NCc1cc2cnccc2[nH]1)[C@@H]1CCc2c(Cl)nc(NCC3(c4ccccc4)COC3)c(=O)n21 [Compound 251]	< 500	500 to 2500
O=C(NCc1cc2c(s1)CNC2)[C@@H]1CCc2cnc(NCC3(Cc4ccccc4)CCCCC3)c(=O)n21 [Compound 252]	< 500	2500 to 10000
Cc1ccc(C)c([C@@H](C)Nc2ncc3n(c2=O)[C@H](C(=O)NCc2cc4c(s2)CNC4)CC3)c1 [Compound 253, (S)—N-((5,6-dihydro-4H-thieno[2,3-c]pyrrol-2-yl)methyl)-3-(((R)-1-(2,5-dimethylphenyl)ethyl)amino)-4-oxo-4,6,7,8-tetrahydropyrrolo[1,2-a]pyrazine-6-carboxamide]	< 500	< 500

Reference: patent US20250122225A1, “MASP-2 INHIBITORS AND METHODS OF USE” (Omeros Corporation, priority 2023, published 2025)
